Patent US20230192661A1, “1, 4, 5, 6-TETRAHYDROPYRIMIDINE-2-AMINE DERIVATIVE” (UBE Corporation, priority 2020, published 2023)

Legend:
[1] = system: TGF-β activation (phosphorylated SMAD3); assay: TGF-β activation inhibition test (inhibition of SMAD3 phosphorylation in TFK-1 cells); type: cell-based; settings: 48 h, fibronectin-coated plate, cultured 2 days, read-out: IC50 (rate of inhibition of phosphorylated SMAD3)
Procedure: In Test Example 3, the inhibition of TGF-β activation by a compound was detected with the inhibition of SMAD3 phosphorylation as an index. In Test Example 3, the same reagents as in Test Example 1 were used unless otherwise specified.
Human fibronectin was prepared at 14 μg/mL with PBS and then dispensed at 50 μL/well to a 96-well plate. The plate was left standing at room temperature for 1 hour or longer, followed by the removal of the fibronectin solution. The plate was washed with PBS and used as a coated plate.
A test compound dissolved in DMSO was added to RPMI medium 1640 (manufactured by Thermo Fisher Scientific, Inc., 11875) containing 1% FBS and 1% penicillin/streptomycin/amphotericin B to prepare a medium containing the test compound having a concentration of two times the final concentration. This medium was added at 100 μL/well to the coated plate. TFK-1 cells (Cell Resource Center for Biomedical Research, Institute of Development, Aging and Cancer, Tohoku University) cultured in RPMI medium 1640 containing 10% FBS and 1% penicillin/streptomycin/amphotericin B were suspended in RPMI medium 1640 containing 1% FBS and 1% penicillin/streptomycin/amphotericin B to prepare a cell suspension of 1×10^6 cells/mL. The prepared cell suspension was further added at 100 μL/well and cultured for 2 days in a 5% CO2 incubator (37° C.).
Phosphorylated SMAD3 in the cells thus cultured for 2 days was measured using Phospho-SMAD3 (Ser423/425) cellular kit (manufactured by cisbio, 63ADK025), and a DeltaF value was calculated according to the calculation expression of the kit. Inhibition when 10 μM LY364947 (FUJIFILM Wako Pure Chemical Corp., 123-05981) was added instead of the test compound was defined as 100% inhibition, and inhibition when DMSO was added instead was defined as 0% inhibition. The rate of inhibition of phosphorylated SMAD3 by the test compound was calculated according to the following expression.
Rate of inhibition of phosphorylated SMAD3 (%)=[1−{(DeltaF value in the case of adding the test compound)−(DeltaF value in the case of adding 10 μM LY364947)}/{(DeltaF value in the case of adding DMSO)−(DeltaF value in the case of adding 10 μM LY364947)}]×100
An IC50 value was calculated from the rate of inhibition of phosphorylated SMAD3 by the test compound. A: IC50<10 nM, B: 10 nM≤IC50<50 nM, C: 50 nM≤IC50<100 nM, or D: IC50≥100 nM.

αvβ1 = target: T1, αvβ1 (UniProt G3HZ55+P06756); assay: αvβ1 cell adhesion inhibition test (αv-transfected CHO cells on human fibronectin); type: cell-based; settings: human fibronectin coating, 1 mM MnCl2, 1 hour, read-out: IC50 (rate of inhibition of cell adhesion, αvβ1)
T1 construct: expressed in transfected cells; host or cells: CHO cells deficient in α5 gene, transfected with αv gene
T1 sequence (P06756 31-889 limits assumed): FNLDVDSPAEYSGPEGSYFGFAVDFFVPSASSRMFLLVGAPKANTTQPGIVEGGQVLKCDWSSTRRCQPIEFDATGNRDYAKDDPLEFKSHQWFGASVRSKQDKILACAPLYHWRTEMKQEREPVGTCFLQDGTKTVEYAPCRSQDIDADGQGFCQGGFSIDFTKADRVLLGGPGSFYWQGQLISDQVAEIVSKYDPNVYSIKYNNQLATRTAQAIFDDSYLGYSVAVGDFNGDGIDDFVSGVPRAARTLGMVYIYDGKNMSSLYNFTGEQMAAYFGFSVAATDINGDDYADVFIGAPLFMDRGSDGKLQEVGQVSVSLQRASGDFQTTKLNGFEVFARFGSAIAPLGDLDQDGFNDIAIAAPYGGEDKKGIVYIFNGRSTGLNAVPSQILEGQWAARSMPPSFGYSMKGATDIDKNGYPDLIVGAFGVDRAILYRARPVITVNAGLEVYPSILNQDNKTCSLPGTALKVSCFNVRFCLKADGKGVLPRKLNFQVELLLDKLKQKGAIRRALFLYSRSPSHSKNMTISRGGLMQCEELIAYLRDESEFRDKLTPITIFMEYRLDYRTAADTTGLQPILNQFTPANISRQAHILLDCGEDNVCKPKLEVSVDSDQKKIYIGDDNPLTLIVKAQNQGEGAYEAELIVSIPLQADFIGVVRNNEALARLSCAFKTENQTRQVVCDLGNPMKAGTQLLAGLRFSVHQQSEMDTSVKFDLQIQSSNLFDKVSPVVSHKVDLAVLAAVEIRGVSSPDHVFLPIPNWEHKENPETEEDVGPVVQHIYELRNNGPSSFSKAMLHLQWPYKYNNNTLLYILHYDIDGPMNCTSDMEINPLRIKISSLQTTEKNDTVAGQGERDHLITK
T1 sequence (P06756 891-1048 limits assumed): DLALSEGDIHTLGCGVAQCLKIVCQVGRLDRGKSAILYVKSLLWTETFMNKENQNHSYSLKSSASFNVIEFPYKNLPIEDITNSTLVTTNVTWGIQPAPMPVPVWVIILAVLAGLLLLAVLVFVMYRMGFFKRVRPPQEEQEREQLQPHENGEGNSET
T1 sequence (G3HZ55 21-798): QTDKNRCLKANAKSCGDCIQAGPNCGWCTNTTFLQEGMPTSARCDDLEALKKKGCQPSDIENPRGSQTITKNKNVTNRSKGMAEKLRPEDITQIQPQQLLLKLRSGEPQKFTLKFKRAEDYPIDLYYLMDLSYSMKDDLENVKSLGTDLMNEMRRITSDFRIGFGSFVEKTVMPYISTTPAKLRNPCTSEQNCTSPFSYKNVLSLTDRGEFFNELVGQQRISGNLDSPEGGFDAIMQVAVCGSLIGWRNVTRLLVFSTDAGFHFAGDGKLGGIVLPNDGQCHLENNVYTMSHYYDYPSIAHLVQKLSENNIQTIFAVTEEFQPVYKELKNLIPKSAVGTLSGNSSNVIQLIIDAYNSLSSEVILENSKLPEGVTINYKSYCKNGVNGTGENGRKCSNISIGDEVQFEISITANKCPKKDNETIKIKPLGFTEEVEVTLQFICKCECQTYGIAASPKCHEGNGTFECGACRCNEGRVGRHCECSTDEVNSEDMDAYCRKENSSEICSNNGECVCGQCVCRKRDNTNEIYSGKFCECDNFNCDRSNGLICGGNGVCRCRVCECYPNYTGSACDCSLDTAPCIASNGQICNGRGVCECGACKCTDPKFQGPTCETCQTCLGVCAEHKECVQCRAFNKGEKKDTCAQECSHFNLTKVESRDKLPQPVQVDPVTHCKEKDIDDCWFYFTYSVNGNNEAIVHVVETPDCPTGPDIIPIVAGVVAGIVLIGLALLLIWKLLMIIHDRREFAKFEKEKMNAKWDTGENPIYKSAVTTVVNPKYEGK
Procedure: Test Example 1 was performed by partially modifying the method of Reed et al. (Sci Transl Med., 7 (288), 288ra79, 2015).
Human fibronectin (manufactured by Sigma-Aldrich Co. LLC, F0895) was prepared at 1.25 μg/mL with phosphate buffered saline (PBS), dispensed at 100 μL/well to a 96-well plate, and left standing overnight. The plate was washed with Hanks' balanced salt solution (HBSS), then subjected to blocking treatment with Dulbecco's modified Eagle medium (DMEM) containing 1% bovine serum-derived albumin (BSA) (FUJIFILM Wako Pure Chemical Corp., for cell culture, 017-22231), and used as a coated plate in the adhesion test.
αv-transfected cells (CHO cells deficient in α5 gene and transfected with αv gene) cultured in Ham's F-12 medium (FUJIFILM Wako Pure Chemical Corp., 087-08335) containing 10% fetal bovine serum (FBS), 1% penicillin/streptomycin/amphotericin B (manufactured by Thermo Fisher Scientific, Inc., 15240), 1 mM GlutaMAX Supplement (manufactured by Thermo Fisher Scientific, Inc., 35050), and 400 μg/mL hygromycin B (FUJIFILM Wako Pure Chemical Corp., 080-07683) were recovered and suspended in DMEM containing 1 mM MnCl2 (manufactured by Sigma-Aldrich Co. LLC, M1787) to prepare a cell suspension. A test compound dissolved in DMSO was added thereto.
The cell suspension of 1×10^6 cells/mL containing the test compound was added at 100 μL/well to the coated plate and left standing for 1 hour in a 5% CO2 incubator (37° C.). One hour later, the supernatant was removed, and the plate was washed with HBSS. The cells that adhered to each well in the plate were stained with crystal violet, and the cells were lysed, followed by absorbance measurement. Inhibition without substrate coating was defined as 100% inhibition, and inhibition when DMSO was added instead of the test compound was defined as 0% inhibition. The rate of inhibition of cell adhesion by the test compound was calculated according to the following expression.
Rate of inhibition of cell adhesion (%)=[1−{(Absorbance in the case of adding the test compound)−(Absorbance without substrate coating)}/{(Absorbance in the case of adding DMSO)−(Absorbance without substrate coating)}]×100
An IC50 value was calculated from the rate of inhibition of cell adhesion by the test compound. A: IC50<3 nM, B: 3 nM≤IC50<10 nM, C: 10 nM≤IC50<30 nM, D: 30 nM≤IC50<100 nM, or E: IC50≥100 nM.

Row | Structure (SMILES) | IC50 [1] [nM] | IC50 (αvβ1) [nM]
1 | O=C(O)C[C@H](NC(=O)CNC(=O)c1cc(NC2=NCC(F)CN2)c2cn[nH]c2c1)c1cc(Br)cc(OC(F)F)c1 (stereo partly drawn) [Example 26-(b), (3S)-3-(3-bromo-5-(difluoromethoxy)phenyl)-3-(2-(4-((5-fluoro-1,4,5,6-tetrahydropyrimidin-2-yl)amino)-1H-indazole-6-carboxamido)acetamido)propanoic acid] | < 10 | < 3
2 | O=C(O)C[C@H](NC(=O)CNC(=O)c1cc(NC2=NCC(F)CN2)c2cn[nH]c2c1)c1ccc(F)c(OC(F)F)c1 (stereo partly drawn) [Example 27-(b), (3S)-3-(3-(difluoromethoxy)-4-fluorophenyl)-3-(2-(4-((5-fluoro-1,4,5,6-tetrahydropyrimidin-2-yl)amino)-1H-indazole-6-carboxamido)acetamido)propanoic acid] | < 10 | < 3
3 | O=C(O)C[C@H](NC(=O)CNC(=O)c1cc(NC2=NCC(F)CN2)c2cn[nH]c2c1)c1cc(OC(F)F)ccc1F (stereo partly drawn) [Example 28-(b), (3S)-3-(5-(difluoromethoxy)-2-fluorophenyl)-3-(2-(4-((5-fluoro-1,4,5,6-tetrahydropyrimidin-2-yl)amino)-1H-indazole-6-carboxamido)acetamido)propanoic acid] | 10 to 50 | < 3
4 | O=C(O)C[C@H](NC(=O)CNC(=O)c1cc(NC2=NCC(F)CN2)c2cn[nH]c2c1)c1cc(OC(F)F)cc(-n2cccn2)c1 (stereo partly drawn) [Example 29-(b), (3S)-3-(3-(difluoromethoxy)-5-(1H-pyrazol-1-yl)phenyl)-3-(2-(4-((5-fluoro-1,4,5,6-tetrahydropyrimidin-2-yl)amino)-1H-indazole-6-carboxamido)acetamido)propanoic acid] | < 10 | < 3
5 | O=C(O)C[C@H](NC(=O)CNC(=O)c1cc(NC2=NCC(F)CN2)c2cn[nH]c2c1)c1cc(OC(F)F)cc(OC(F)F)c1 (stereo partly drawn) [Example 30-(b), (3S)-3-(3,5-bis(difluoromethoxy)phenyl)-3-(2-(4-((5-fluoro-1,4,5,6-tetrahydropyrimidin-2-yl)amino)-1H-indazole-6-carboxamido)acetamido)propanoic acid] | < 10 | < 3
6 | O=C(O)C[C@H](NC(=O)CNC(=O)c1cc(NC2=NCC(F)CN2)c2cn[nH]c2c1)c1cc(Cl)cc(OC(F)(F)F)c1 (stereo partly drawn) [Example 31-(b), (3S)-3-(3-chloro-5-(trifluoromethoxy)phenyl)-3-(2-(4-((5-fluoro-1,4,5,6-tetrahydropyrimidin-2-yl)amino)-1H-indazole-6-carboxamido)acetamido)propanoic acid] | < 10 | 3 to 10
7 | O=C(O)C[C@H](NC(=O)CNC(=O)c1cc(NC2=NCC(F)CN2)c2cn[nH]c2c1)c1cc(Br)cc(OC(F)(F)F)c1 (stereo partly drawn) [Example 32-(b), (3S)-3-(3-bromo-5-(trifluoromethoxy)phenyl)-3-(2-(4-((5-fluoro-1,4,5,6-tetrahydropyrimidin-2-yl)amino)-1H-indazole-6-carboxamido)acetamido)propanoic acid] | < 10 | < 3
8 | O=C(O)C[C@H](NC(=O)CNC(=O)c1cc(NC2=NCC(F)CN2)c2cn[nH]c2c1)c1cc(OC(F)(F)F)ccc1F (stereo partly drawn) [Example 33-(b), (3S)-3-(2-(4-((5-fluoro-1,4,5,6-tetrahydropyrimidin-2-yl)amino)-1H-indazole-6-carboxamido)acetamido)-3-(2-fluoro-5-(trifluoromethoxy)phenyl)propanoic acid] | < 10 | < 3
9 | O=C(O)C[C@H](NC(=O)CNC(=O)c1cc(NC2=NCC(F)CN2)c2cn[nH]c2c1)c1ccc(F)c(OC(F)(F)F)c1 (stereo partly drawn) [Example 34-(b), (3S)-3-(2-(4-((5-fluoro-1,4,5,6-tetrahydropyrimidin-2-yl)amino)-1H-indazole-6-carboxamido)acetamido)-3-(4-fluoro-3-(trifluoromethoxy)phenyl)propanoic acid] | < 10 | < 3
10 | O=C(O)C[C@H](NC(=O)CNC(=O)c1cc(NC2=NCC(F)CN2)c2cn[nH]c2c1)c1cccc(C(F)(F)F)c1 (stereo partly drawn) [Example 35-(b), (3S)-3-(2-(4-((5-fluoro-1,4,5,6-tetrahydropyrimidin-2-yl)amino)-1H-indazole-6-carboxamido)acetamido)-3-(3-(trifluoromethyl)phenyl)propanoic acid] | 10 to 50 | 3 to 10
11 | O=C(O)C[C@H](NC(=O)CNC(=O)c1cc(NC2=NCC(F)CN2)c2cn[nH]c2c1)c1cccc(OC(F)(F)F)c1 (stereo partly drawn) [Example 36-(b), (3S)-3-(2-(4-((5-fluoro-1,4,5,6-tetrahydropyrimidin-2-yl)amino)-1H-indazole-6-carboxamido)acetamido)-3-(3-(trifluoromethoxy)phenyl)propanoic acid] | 10 to 50 | 3 to 10
12 | O=C(O)C[C@H](NC(=O)CNC(=O)c1cc(NC2=NCC(F)CN2)c2cn[nH]c2c1)c1cccc(OC(F)F)c1 (stereo partly drawn) [Example 37-(b), (3S)-3-(3-(difluoromethoxy)phenyl)-3-(2-(4-((5-fluoro-1,4,5,6-tetrahydropyrimidin-2-yl)amino)-1H-indazole-6-carboxamido)acetamido)propanoic acid] | < 10 | 3 to 10
13 | O=C(O)C[C@H](NC(=O)CNC(=O)c1cc(NC2=NCC(F)CN2)c2cn[nH]c2c1)c1cccc(C(F)F)c1 (stereo partly drawn) [Example 38-(b), (3S)-3-(3-(difluoromethyl)phenyl)-3-(2-(4-((5-fluoro-1,4,5,6-tetrahydropyrimidin-2-yl)amino)-1H-indazole-6-carboxamido)acetamido)propanoic acid] | 50 to 100 | < 3
14 | O=C(O)C[C@H](NC(=O)CNC(=O)c1cc(NC2=NCC(F)CN2)c2cn[nH]c2c1)c1cccc(C2CC2)c1 (stereo partly drawn) [Example 39-(b), (3S)-3-(3-cyclopropylphenyl)-3-(2-(4-((5-fluoro-1,4,5,6-tetrahydropyrimidin-2-yl)amino)-1H-indazole-6-carboxamido)acetamido)propanoic acid] | < 10 | < 3
15 | O=C(O)C[C@H](NC(=O)CNC(=O)c1cc(NC2=NCC(F)CN2)c2cn[nH]c2c1)c1cccc(OC2CC2)c1 (stereo partly drawn) [Example 40-(b), (3S)-3-(3-cyclopropoxyphenyl)-3-(2-(4-((5-fluoro-1,4,5,6-tetrahydropyrimidin-2-yl)amino)-1H-indazole-6-carboxamido)acetamido)propanoic acid] | 10 to 50 | < 3
